Like-named read-outs stand apart in the source and are kept apart here.
Columns and labels:
[1] = test system: ear oedema induced by croton oil; experiment: Croton oil ear oedema, topical application (antioedematous activity); type: in vivo, mouse (AB); conditions: 2×10 μl of a 5% ethanolic solution 1 hour after croton oil, 6 hours after inducing oedema
Description: Antioedamatous activity The assays for determining the antioedamatous activity of the novel compounds of formulae (101) and (102) prepared in Examples 1 and 2 are carried out on male AB mice (18-22 g, 9 animals per group). The ear oedema is induced by applying 2×10 μl of croton oil (1% in acetone) to the ears of the mice. After 1 hour the novel compounds (2×10 μl of a 5% ethanolic solution of each compound) are applied. After a further 5 hours (6 hours after inducing oedema) the animals are sacrificed, and pieces of ear tissue having a diameter of 8 mm are obtained. The oedema weight is determined as the difference between the contralateral ear. The percentage inhibition is calculated from a comparison with the control animals. (Table 2).

[2] = biological target: T1, PGH Synthase (Ovis aries, UniProt P05979); experiment: Prostaglandin H synthase activity, oxygraphic; type: biochemical, sheep; conditions: 30 μmol/l arachidonic acid, pH 8.0, 25° C., 5 minutes preincubation
T1 construct: prepared from the seminal vesicles of sheep; from tissue; host or cells: sheep seminal vesicles, microsomal enzyme preparation
T1 sequence (P05979 25-600): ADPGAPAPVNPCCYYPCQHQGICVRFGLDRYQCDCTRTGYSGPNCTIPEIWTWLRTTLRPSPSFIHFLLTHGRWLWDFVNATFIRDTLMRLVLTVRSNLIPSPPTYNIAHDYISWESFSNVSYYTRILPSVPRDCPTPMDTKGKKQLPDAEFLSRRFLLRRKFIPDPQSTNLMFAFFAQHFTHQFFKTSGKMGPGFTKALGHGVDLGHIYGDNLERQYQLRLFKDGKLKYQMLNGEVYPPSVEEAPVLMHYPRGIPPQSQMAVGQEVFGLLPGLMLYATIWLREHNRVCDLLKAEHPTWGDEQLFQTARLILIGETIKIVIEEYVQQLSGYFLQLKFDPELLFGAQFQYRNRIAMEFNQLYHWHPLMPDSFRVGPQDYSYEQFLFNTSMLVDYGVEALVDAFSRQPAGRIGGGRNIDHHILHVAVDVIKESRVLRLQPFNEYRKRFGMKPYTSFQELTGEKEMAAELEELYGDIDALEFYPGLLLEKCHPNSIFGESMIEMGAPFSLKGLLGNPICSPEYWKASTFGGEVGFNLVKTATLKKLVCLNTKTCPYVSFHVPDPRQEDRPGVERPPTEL
Description: Both enzymatic activities are measured oxygraphically at 25° C.

[3] = test system: hydrogen peroxide formation in casein-stimulated peritoneal granulocytes of rats; experiment: Formation of hydrogen peroxide induced by opsonated zymosan in casein-stimulated peritoneal granulocytes; type: cell-based, rat; conditions: 5×10^6 cells/ml, 30 min incubation
[4] = biological target: T2, 5-LOX (Oryctolagus cuniculus, UniProt P12530); experiment: Lipoxygenase activity, oxygraphic (Table 4 column headed 5-LOX; method describes 15-lipoxygenase); type: biochemical, rabbit
T2 construct: 15-lipoxygenase from rabbit reticulocytes; from tissue; host or cells: rabbit reticulocytes
T2 sequence (P12530 2-663): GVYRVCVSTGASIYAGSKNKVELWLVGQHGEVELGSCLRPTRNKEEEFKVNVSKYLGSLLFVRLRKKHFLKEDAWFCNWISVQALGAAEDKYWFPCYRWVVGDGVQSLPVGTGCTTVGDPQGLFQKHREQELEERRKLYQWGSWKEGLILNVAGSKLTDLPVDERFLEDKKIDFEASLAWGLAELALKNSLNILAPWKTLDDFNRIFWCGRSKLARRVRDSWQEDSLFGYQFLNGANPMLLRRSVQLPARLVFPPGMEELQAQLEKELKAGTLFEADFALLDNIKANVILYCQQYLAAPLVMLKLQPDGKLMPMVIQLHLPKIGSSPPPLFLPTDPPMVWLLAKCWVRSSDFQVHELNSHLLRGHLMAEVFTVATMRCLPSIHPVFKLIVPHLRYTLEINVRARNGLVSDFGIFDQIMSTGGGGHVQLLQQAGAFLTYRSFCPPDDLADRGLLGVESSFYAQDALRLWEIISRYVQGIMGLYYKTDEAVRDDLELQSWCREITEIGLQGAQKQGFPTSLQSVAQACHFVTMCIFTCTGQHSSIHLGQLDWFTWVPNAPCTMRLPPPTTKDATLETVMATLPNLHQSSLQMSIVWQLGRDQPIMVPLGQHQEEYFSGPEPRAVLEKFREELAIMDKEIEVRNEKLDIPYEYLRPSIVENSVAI
Description: Prostaglandin H synthase is prepared from the seminal vesicles of sheep (F. S. Van der Ouderaa, M. Buytenhek.: Methods Enzymol. 86, 60-68 (1982)), and 15-lipoxygenase from rabbit reticulocytes (T. Schewe, R. Wiesner, S. M. Rapoport: Methods Enzymol. 71, 430-441 (1981)). Both enzymatic activities are measured oxygraphically at 25° C.
The 15-lipoxygenase activity is measured using 265 μmol/l of potassium linoleate as substrate in 0.1 molar phosphate puffer at pH 7.4 and 0.2% sodium cholate (T. Schewe, H. Kuhn, S. M. Rapoport, in: Prostaglandins and Related Substances--A Practical Approach pp. 229-242, C. Benedetto, R. G. McDonald-Gibson, S. Nigam, T. F. Slater (Eds.); IRL Press, Oxford, Wash. (1987)). The compounds are freshly dissolved in 2-methoxyethanol and preincubated for 5 minutes with the enzyme preparation, and the reaction is started by addition of substrate.

[5] = biological target: T3, 5-lipoxygenase (Homo sapiens, UniProt P09917); experiment: Formation of 5-HETE by 5-lipoxygenase of human polymorphonuclear leucozytes; type: cell-based; conditions: 1-^14 C-arachidonic acid (10 μmol/l)
T3 construct: 5-lipoxygenase of human polymorphonuclear leucozytes; endogenous in cells; host or cells: human polymorphonuclear leukocytes
T3 sequence (P09917 1-674): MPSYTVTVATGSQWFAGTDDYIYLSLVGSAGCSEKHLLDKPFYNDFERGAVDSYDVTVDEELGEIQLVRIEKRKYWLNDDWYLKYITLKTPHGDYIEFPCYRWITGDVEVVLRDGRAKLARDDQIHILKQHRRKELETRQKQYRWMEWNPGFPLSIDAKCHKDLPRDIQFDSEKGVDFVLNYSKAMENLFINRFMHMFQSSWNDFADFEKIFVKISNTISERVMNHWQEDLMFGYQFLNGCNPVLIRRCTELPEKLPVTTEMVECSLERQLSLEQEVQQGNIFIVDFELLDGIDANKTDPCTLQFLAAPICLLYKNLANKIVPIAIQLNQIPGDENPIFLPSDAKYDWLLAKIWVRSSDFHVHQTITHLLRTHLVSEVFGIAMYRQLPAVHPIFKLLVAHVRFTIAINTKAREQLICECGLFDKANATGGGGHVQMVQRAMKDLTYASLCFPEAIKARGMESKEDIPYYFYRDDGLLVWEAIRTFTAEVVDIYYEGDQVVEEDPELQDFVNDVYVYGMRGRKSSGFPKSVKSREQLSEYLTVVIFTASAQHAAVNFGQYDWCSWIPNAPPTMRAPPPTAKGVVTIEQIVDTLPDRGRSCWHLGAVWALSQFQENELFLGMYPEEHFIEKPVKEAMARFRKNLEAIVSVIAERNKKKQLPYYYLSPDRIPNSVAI

[6] = test system: writhing reactions induced by acetic acid; experiment: Acetic acid-induced writhing syndrome; type: in vivo, mouse (CBA); conditions: i.p., 5×10^-5 mol/kg, 30 minutes before inducement; recorded over 20 minutes
Description: The writhing reactions are induced by i.p. (=intraperitoneal) injection of 0.1 ml of 1% acetic acid/10 g and recorded over a period of 20 minutes after injection.

[7] = test system: carrageenan oedema; experiment: Carrageenan oedema of the rat paw after systemic application; type: in vivo, rat (Wistar); conditions: administered simultaneously with carrageenan, paw diameter 3 hours after inducing the oedema
[8] = Rattus norvegicus, ip, read-out: ED50

Q: For `CCCCCCCCOC(=O)C(N)c1ccc(O)c(O)c1.Cl` (racemic) [compound of formula (101), DL-3,4-dihydroxyphenylglycine octyl ester hydrochloride], which Inhibition [1] is on record?
A: Its Inhibition is 23.9%.

Q: What about the IC50 [2] of the same molecule?
A: The IC50 was 110 µM.

Q: What about the IC50 ([3]; Rattus norvegicus, 0.5 h) of the same molecule?
A: The IC50 was 2.3 µM.

Q: What about the IC50 [4] of the same molecule?
A: Its IC50 is 3.9 µM.

Q: What about the IC50 [5] of the same molecule?
A: Its IC50 is 6.9 µM.

Q: And the Inhibition [6]?
A: The Inhibition was 80.2%.

Q: What about the ED50 [7, 8] of the same molecule?
A: Its ED50 is 150 µmol/kg.

Q: How did the Inhibition [1] turn out when `CCCCCCCCOC(=O)C(N)c1cc(O)c(O)c(O)c1` (racemic) [compound of formula (102)] was run?
A: The Inhibition was 45.7%.

Q: What about the IC50 [2] of the same molecule?
A: Its IC50 is 85 µM.

Q: What about the IC50 ([3]; Rattus norvegicus, 0.5 h) of the same molecule?
A: The IC50 was 5.3 µM.

Q: What about the IC50 [4] of the same molecule?
A: The IC50 was 250 µM.

Q: What about the IC50 [5] of the same molecule?
A: Its IC50 is 1.3 µM.

Q: And the Inhibition [6]?
A: Its Inhibition is 80.7%.

Q: And the ED50 [7, 8]?
A: Its ED50 is 80 µmol/kg.

Q: Which results are given for `CC(=O)Oc1ccccc1C(=O)O` [acetylsalicylic acid, reference compound]?
A: IC50 [3]: > 100 µM; IC50 ([4]; 265 μmol/l potassium linoleate, pH 7.4, 25° C., 5 minutes preincubation (method of 15-lipoxygenase), read-out: 5-LOX IC50): > 1000 µM; Inhibition [6]: 32.3%; ED50 ([7]; i.p.): 15.2 10^-4 mol/kg

— patent US5834511A, “DL- DI- or tri-hydroxyphenylglycine alkyl esters for the treatment of inflammatory and allergic conditions” (Ciba Specialty Chemicals Corporation, priority 1994, dated 1998)
